Laboratory results: the supplement of paper PMC4862054

What was measured:
Conditions in all cases: incubation time: 72 h
BT-549 = assay: drug sensitivity score (DSS), CellTox Green (DSS (AUC-based score)); higher = stronger drug effect (viability inhibition or cytotoxicity); extreme values may be limits of the assay
Outline: (§1)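 Breast cancer cell lines were seeded in 20 µl suspension into 384-well plates already holding compound and incubated for 72 h. Each compound was tested at 5 concentrations in 10-fold steps across its own 10,000-fold range. Plates were normalised to 0.1 % DMSO and a positive kill control after CellTox Green and then CellTiter-Glo readings. The area under the fitted dose-response curve served as the basis for the drug sensitivity score.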

CAL-85-1 = assay: as above
Outline: as §1

DU-4475 = assay: as above
Outline: as §1

HCC1599 = assay: as above
Outline: as §1

Hs578T [1] = assay: as above
Outline: as §1

MDA-MB-231 = assay: as above
Outline: as §1

MDA-MB-453 = assay: as above
Outline: as §1

MDA-MB-468 = assay: as above
Outline: as §1

MFM-223 = assay: as above
Outline: as §1

Hs578T [2] = assay: normalised response (% of control), CellTox Green; higher = less cell death (100 = DMSO, 0 = benzethonium chloride kill control)
Outline: (§2)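 Values are normalised signals, each belonging to one concentration of the series. Breast cancer cells (20 µl suspension) were seeded into 384-well plates with compound at 5 concentrations in 10-fold steps over a compound-specific 10,000-fold range and incubated 72 h. Readouts were CellTox Green fluorescence (485/520 nm), then CellTiter-Glo luminescence after 10 min at room temperature, with each plate set to 0.1 % DMSO as 100 and a positive kill control as 0.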

MDA-MB-436 = assay: as above
Outline: as §2

| SMILES | drug sensitivity score (BT-549) | drug sensitivity score (CAL-85-1) | drug sensitivity score (DU-4475) | drug sensitivity score (HCC1599) | drug sensitivity score (Hs578T [1]) | drug sensitivity score (MDA-MB-231) | drug sensitivity score (MDA-MB-453) | drug sensitivity score (MDA-MB-468) | drug sensitivity score (MFM-223) | normalised response (Hs578T [2]) | normalised response (MDA-MB-436) |
| --- | --- | --- | --- | --- | --- | --- | --- | --- | --- | --- | --- |
| Cc1c(Cn2c(C)nc3c(C(=O)O)cc(N4CCOCC4)cc32)cccc1C(F)(F)F | 0 | 0 | 0 | 0 | 0 | 0 | 0 | 0 | 0 |  |  |
| COc1ccc(-c2cc3c(C)nc(N)nc3n([C@H]3CC[C@H](OCCO)CC3)c2=O)cn1 (1000 nM) |  |  |  |  |  |  |  |  |  | 101% | 113% |
| COc1ccc(-c2cc3c(C)nc(N)nc3n([C@H]3CC[C@H](OCCO)CC3)c2=O)cn1 (10000 nM) |  |  |  |  |  |  |  |  |  | 28.7% | 100% |
| CC/C(=C(\c1ccc(O)cc1)c1ccc(OCCN(C)C)cc1)c1ccccc1 [4-hydroxytamoxifen] | 0 | 1.62 | 0 | 0 |  | 4.16 | 1 | 21 | 0 |  |  |
| CCCCC/C=C/C=C1/C(=O)C=C[C@@H]1C/C=C\CCCC(=O)O [15D-PGJ2] | 0 | 0 | 0 | 0 | 0 | 0 | 0 | 0 | 0 |  |  |
| O=C(Nc1c[nH]nc1-c1nc2ccc(CN3CCOCC3)cc2[nH]1)NC1CC1 [AT9283] (1000 nM) |  |  |  |  |  |  |  |  |  | 83.2% | 77.6% |
| COc1cc(CCc2cc(NC(=O)c3ccc(N4CC(C)NC(C)C4)cc3)n[nH]2)cc(OC)c1 (configuration not stated) [AZD4547] (100 nM) |  |  |  |  |  |  |  |  |  | 94% | 91% |
| COc1cc(CCc2cc(NC(=O)c3ccc(N4CC(C)NC(C)C4)cc3)n[nH]2)cc(OC)c1 (configuration not stated) [AZD4547] (1000 nM) |  |  |  |  |  |  |  |  |  | 115% | 95.4% |
| CC(=O)OC[C@H]1O[C@@H]([S-])[C@H](OC(C)=O)[C@@H](OC(C)=O)[C@@H]1OC(C)=O.CCP(CC)CC.[Au+] [Auranofin] | 4.41 | 4.88 | 0 | 0 | 0 | 3.16 | 1.98 | 9.05 | 1.22 |  |  |
| CCC/C=C/C=C/C(=O)O[C@H]1/C(=C/C(=O)OC)C[C@H]2C[C@H]([C@@H](C)O)OC(=O)C[C@H](O)C[C@@H]3C[C@H](OC(C)=O)C(C)(C)[C@](O)(C[C@@H]4C/C(=C/C(=O)OC)C[C@H](/C=C/C(C)(C)[C@]1(O)O2)O4)O3 [Bryostatin 1] (10 nM) |  |  |  |  |  |  |  |  |  | 109% | 74.1% |
| CCC/C=C/C=C/C(=O)O[C@H]1/C(=C/C(=O)OC)C[C@H]2C[C@H]([C@@H](C)O)OC(=O)C[C@H](O)C[C@@H]3C[C@H](OC(C)=O)C(C)(C)[C@](O)(C[C@@H]4C/C(=C/C(=O)OC)C[C@H](/C=C/C(C)(C)[C@]1(O)O2)O4)O3 [Bryostatin 1] (100 nM) |  |  |  |  |  |  |  |  |  | 114% |  |
| CO[C@@H](C(=O)N1Cc2[nH]nc(NC(=O)c3ccc(N4CCN(C)CC4)cc3)c2C1)c1ccccc1 [Danusertib] (10000 nM) |  |  |  |  |  |  |  |  |  | -40.1% | 75.7% |
| Cc1nc(Nc2ncc(C(=O)Nc3c(C)cccc3Cl)s2)cc(N2CCN(CCO)CC2)n1 [Dasatinib] (100 nM) |  |  |  |  |  |  |  |  |  | 90.8% | 107% |
| Cc1nc(Nc2ncc(C(=O)Nc3c(C)cccc3Cl)s2)cc(N2CCN(CCO)CC2)n1 [Dasatinib] (1000 nM) |  |  |  |  |  |  |  |  |  | 5.15% | 97% |
| Cc1c(CN2CCN(C(=O)[C@H](C)O)CC2)sc2c(N3CCOCC3)nc(-c3cnc(N)nc3)nc12 [GDC-0980] (1000 nM) |  |  |  |  |  |  |  |  |  | 107% | 102% |
| Cc1c(CN2CCN(C(=O)[C@H](C)O)CC2)sc2c(N3CCOCC3)nc(-c3cnc(N)nc3)nc12 [GDC-0980] (10000 nM) |  |  |  |  |  |  |  |  |  | 98.8% | 98.5% |
| Cc1cccc(-c2nn3c(c2-c2ccnc4ccc(C(N)=O)cc24)CCC3)n1 [Galunisertib] | 0 | 0 | 0 | 0 | 0 | 0 | 0 | 0 | 0 |  |  |
